Test results published in patent publication US7396837B2, “Antitumoral analogs of lamellarins” (Pharma Mar, S.A.U., priority 2002, dated 2008).
Entries after “also recorded” stand apart in the source; their conditions may differ. Where two headings read alike, the source gives them in different places.

How the values were obtained:
[1] = test system: HeLa; assay: SRB colorimetric cell growth inhibition assay, HeLa; type: cell-based; settings: Homo sapiens, HeLa; for GI50: read-out: GI50 HELA; for CC50: read-out: LC50 HELA; for IC (TGI): read-out: TGI HELA
Summary of the method: (§1)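 Read-out: sulforhodamine B colorimetry of surviving cell mass after continued exposure of human tumour lines to sample. Values are means ± SD of three wells, expressed as GI, TGI or LC.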

[2] = test system: HeLa-APL; assay: SRB colorimetric cell growth inhibition assay, HeLa-APL (aplidine resistant); type: cell-based; settings: Homo sapiens; for GI50: read-out: GI50 HELA-APL; for CC50: read-out: LC50 HELA-APL; for IC (TGI): read-out: TGI HELA-APL
Summary of the method: as §1

[3] = biological target: T1, human topoisomerase I (Homo sapiens, UniProt P11387); assay: Topoisomerase I cleavage of radiolabeled 117-bp DNA fragment; type: biochemical; settings: for stimulation of DNA cleavage by topoisomerase I (radiolabeled DNA substrate) / topoisomerase I-mediated DNA cleavage sites / cleavage profile: 117-bp DNA restriction fragment 3' end-labeled; for topoisomerase I-mediated DNA cleavage sites / cleavage profile: sequencing-type polyacrylamide gels
T1 sequence (P11387 1-765): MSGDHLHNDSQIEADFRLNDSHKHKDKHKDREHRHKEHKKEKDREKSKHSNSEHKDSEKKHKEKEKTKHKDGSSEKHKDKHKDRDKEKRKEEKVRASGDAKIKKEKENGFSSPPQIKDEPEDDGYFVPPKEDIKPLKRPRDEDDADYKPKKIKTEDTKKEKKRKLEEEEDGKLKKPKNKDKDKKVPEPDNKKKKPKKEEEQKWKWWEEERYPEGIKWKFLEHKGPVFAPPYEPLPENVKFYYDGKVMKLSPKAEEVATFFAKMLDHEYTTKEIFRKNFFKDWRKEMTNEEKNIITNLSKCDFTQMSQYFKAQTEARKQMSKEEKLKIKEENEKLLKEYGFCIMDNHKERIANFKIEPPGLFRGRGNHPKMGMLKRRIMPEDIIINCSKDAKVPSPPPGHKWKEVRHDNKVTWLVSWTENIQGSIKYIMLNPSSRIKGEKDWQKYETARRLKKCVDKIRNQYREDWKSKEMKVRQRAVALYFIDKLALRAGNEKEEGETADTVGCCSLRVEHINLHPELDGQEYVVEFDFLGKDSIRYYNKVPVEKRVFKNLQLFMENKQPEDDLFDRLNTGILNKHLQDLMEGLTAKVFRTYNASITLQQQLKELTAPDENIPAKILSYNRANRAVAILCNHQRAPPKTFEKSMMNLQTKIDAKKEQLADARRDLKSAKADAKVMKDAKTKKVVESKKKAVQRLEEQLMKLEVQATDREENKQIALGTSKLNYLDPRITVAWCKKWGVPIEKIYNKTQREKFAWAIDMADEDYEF
Text: Two assays, based on DNA relaxation and DNA cleavage (Bailly, C. DNA relaxation and cleavage assays to study topoisomerase I inhibitors. Methods Enzymol. 2001, 340, 610-623) were used evaluate the effects of the lamellarin analogs on the catalytic activity of human topoisomerase I.
A second assay, based on the cleavage of a radiolabeled DNA substrate by topoisomerase I, was used to confirm that the cationic lamellarin derivatives do effectively function as topoisomerase I poisons. A 117-bp DNA restriction fragment uniquely end-labeled at the 3′ end was subjected to cleavage by topoisomerase I in the presence of the different compounds and the resulting DNA cleavage products were resolved on sequencing-type polyacrylamide gels. The advantage of this assay is to detect the cleavage sites and to locate their positions with nucleotide resolution, providing thus information on the site selectivity of cleavage.

[4] = SRB colorimetric cell growth inhibition assay, H-MEC-1; type: cell-based; settings: human
Summary of the method: (§2)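 Growth inhibition (GI), total growth inhibition (TGI, cytostatic) and lethal concentration (LC, cytotoxic) come from an SRB-based colorimetric measure of growth and viability. Data are triplicate-well means ± SD.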

[5] = test system: H-MEC-1; assay: as above; type: cell-based; settings: Homo sapiens, HMEC-1, H-MEC-1; for GI50: GI=growth inhibition, read-out: GI50 H-MEC-1; for IC (TGI): total growth inhibition (cytostatic effect), read-out: TGI H-MEC-1
Summary of the method: as §2

[6] = test system: fertilised sea urchin; settings: fertilised sea urchin assay; cited from earlier work
[7] = test system: SKOV-3; assay: SRB colorimetric cell growth inhibition assay, SKOV-3; type: cell-based; settings: Homo sapiens; for GI50: SK-OV-3, SKOV-3, GI=growth inhibition, read-out: GI50 SKOV-3; for IC (TGI): TGI=total growth inhibition (cytostatic effect), read-out: TGI SKOV-3
Summary of the method: (§3)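 Growth and viability quantified by sulforhodamine B staining in 96-well microplates. Triplicate wells give mean ± SD; derived endpoints are GI, TGI (cytostatic) and LC (cytotoxic).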

[8] = SRB colorimetric cell growth inhibition assay, H-MEC-1; type: cell-based; settings: human, H-MEC-1, LC=cell killing (cytotoxic effect), read-out: LC50 H-MEC-1
Summary of the method: as §3

[9] = test system: H-MEC-1; assay: as above; type: cell-based; settings: Homo sapiens, HMEC-1, H-MEC-1; for GI50: GI=growth inhibition; for IC (TGI): TGI=total growth inhibition (cytostatic effect), read-out: TGI H-MEC-1
Summary of the method: as §3

[10] = H-MEC-1, cell killing (cytotoxic effect), read-out: LC50 H-MEC-1
[11] = SK-OV-3, SKOV-3, LC=cell killing (cytotoxic effect), read-out: LC50 SKOV-3
[12] = H-MEC-1 cells, H-MEC-1, cell killing (cytotoxic effect), read-out: LC50 H-MEC-1
[13] = cell killing (cytotoxic effect)
[14] = total growth inhibition (cytostatic effect)
[15] = HELA-APL, cell killing (cytotoxic effect)
[16] = HELA-APL, total growth inhibition (cytostatic effect)

COc1cc(-c2c3n(c4c(=O)oc5cc(OC(=O)[C@H](C)NC(=O)[C@H](C)NC(=O)OC(C)(C)C)c(OC)cc5c24)CCc2cc(OC(=O)[C@H](C)NC(=O)[C@H](C)NC(=O)OC(C)(C)C)c(OC)cc2-3)ccc1OC(=O)[C@H](C)NC(=O)[C@H](C)NC(=O)OC(C)(C)C [Compound 7]
GI50 [1]: 830 nM
CC50 [1]: 4420 nM
IC (TGI) [1]: 1910 nM
GI50 [2]: 1850 nM
CC50 [2]: 7240 nM
IC (TGI) [2]: 3660 nM
stimulation of DNA cleavage by topoisomerase I (radiolabeled DNA substrate) [3]: stimulate DNA cleavage by the enzyme

COc1cc(-c2c3n(c4c(=O)oc5cc(OC(=O)[C@@H](N)Cc6c[nH]c7ccccc67)c(OC)cc5c24)CCc2cc(OC(=O)[C@@H](N)Cc4c[nH]c5ccccc45)c(OC)cc2-3)ccc1OC(=O)[C@@H](N)Cc1c[nH]c2ccccc12 [Compound 24]
LC50 (concentration giving 50% net cell killing) [4, 10]: 5970 nM
GI50 [5]: 806 nM
IC (TGI) [5]: 2200 nM

COc1cc(-c2c3c4cc(OC)c(O)cc4oc(=O)c3n3ccc4cc(O)c(OC)cc4c23)ccc1O [Compound 3, lamellarin D, reference compound]
topoisomerase I-mediated DNA cleavage sites / cleavage profile ([3]; listed as LAM-D): T^↓G or C^↓G dinucleotides; also recorded: additional cleavage site at C^↓G73
efficiency of topoisomerase I-mediated DNA cleavage at sites T↓G48 and T↓G81 ([3]; compared with CPT): less efficient than CPT
GI50 [5]: 113 nM
IC (TGI) [5]: 3140 nM
inhibition of cell division [6]: inhibition of cell division

COc1cc(-c2c3n(c4c(=O)oc5cc(O)c(OC)cc5c24)CCc2cc(O)c(OC)cc2-3)ccc1O [Compound 109]
GI50 [7]: 2490 nM
CC50 [7, 11]: 19900 nM
IC (TGI) ([7]; SK-OV-3, SKOV-3): 11800 nM
CC50 ([8]; H-MEC-1 cells): 19900 nM
GI50 [9]: 917 nM
IC (TGI) [9]: 19900 nM

COc1cc(-c2c3c4cc(OC)c(OC(=O)[C@H](C)N)cc4oc(=O)c3n3ccc4cc(OC(=O)[C@H](C)N)c(OC)cc4c23)ccc1OC(=O)[C@H](C)N [Compound 40]
GI50 [7]: 28.4 nM
CC50 [7, 11]: 9480 nM
IC (TGI) ([7]; SK-OV-3, SKOV-3): 107 nM

COc1cc(-c2c3c4cc(OC)c(OC(=O)[C@@H]5CCCN5)cc4oc(=O)c3n3ccc4cc(OC(=O)[C@@H]5CCCN5)c(OC)cc4c23)ccc1OC(=O)[C@@H]1CCCN1 [Compound 33]
topoisomerase I-mediated DNA cleavage sites / cleavage profile [3]: Cleavage profiles identical to that of 3
LC50 (concentration giving 50% net cell killing) [4, 12]: 46.3 nM
GI50 [5]: 9.8 nM
IC (TGI) [5]: 21.4 nM

COc1cc(-c2c3n(c4c(=O)oc5cc(OC(=O)CCc6ccccc6)c(OC)cc5c24)CCc2cc(OC(=O)CCc4ccccc4)c(OC)cc2-3)ccc1OC(=O)CCc1ccccc1 [Compound 11]
GI50 ([1]; GI=growth inhibition): 208 nM
CC50 [1, 13]: 11100 nM
IC (TGI) [1, 14]: 1350 nM
GI50 ([2]; HELA-APL, GI=growth inhibition): 5230 nM
CC50 [2, 15]: 11100 nM
IC (TGI) [2, 16]: 11100 nM

COc1cc(-c2c3c4cc(OC)c(OC(=O)[C@@H](N)C(C)C)cc4oc(=O)c3n3ccc4cc(OC(=O)[C@@H](N)C(C)C)c(OC)cc4c23)ccc1OC(=O)[C@@H](N)C(C)C [Compound 36]
stimulation of DNA cleavage by topoisomerase I (radiolabeled DNA substrate) [3]: no difference between the (L) (36) and (D) (17) Val isomers
topoisomerase I-mediated DNA cleavage sites / cleavage profile [3]: Cleavage profiles identical to that of 3
LC50 (concentration giving 50% net cell killing) [4, 12]: 1350 nM
GI50 [5]: 2.65 nM
IC (TGI) [5]: 8.6 nM

COc1cc(-c2c3c4cc(OC)c(OC(=O)[C@@H](N)CC(C)C)cc4oc(=O)c3n3ccc4cc(OC(=O)[C@@H](N)CC(C)C)c(OC)cc4c23)ccc1OC(=O)[C@@H](N)CC(C)C [Compound 39]
topoisomerase I-mediated DNA cleavage sites / cleavage profile [3]: Cleavage profiles identical to that of 3
GI50 [7]: 63.4 nM
CC50 [7, 11]: 8470 nM
IC (TGI) ([7]; SK-OV-3, SKOV-3): 8470 nM
CC50 ([8]; H-MEC-1 cells): 8470 nM
GI50 [9]: 6.98 nM
IC (TGI) [9]: 8470 nM

COc1cc(-c2c3n(c4c(=O)oc5cc(OC(=O)[C@H](N)C(C)C)c(OC)cc5c24)CCc2cc(OC(=O)[C@H](N)C(C)C)c(OC)cc2-3)ccc1OC(=O)[C@H](N)C(C)C [Compound 32]
LC50 (concentration giving 50% net cell killing) [4]: 5370 nM
GI50 [5]: 276 nM
IC (TGI) [5]: 723 nM

COc1cc(-c2c3c4cc(OC)c(OC(=O)CCCCCN)cc4oc(=O)c3n3ccc4cc(OC(=O)CCCCCN)c(OC)cc4c23)ccc1OC(=O)CCCCCN [Compound 169]
GI50 ([1]; GI=growth inhibition): 55.7 nM
CC50 [1, 13]: 4420 nM
IC (TGI) [1, 14]: 1390 nM
GI50 ([2]; HELA-APL, GI=growth inhibition): 70.5 nM
CC50 [2, 15]: 2970 nM
IC (TGI) [2, 16]: 530 nM
stimulation of DNA cleavage by topoisomerase I (radiolabeled DNA substrate) [3]: stimulate DNA cleavage by the enzyme

COc1cc(-c2c3c4cc(OC)c(OC(=O)[C@H](N)C(C)C)cc4oc(=O)c3n3ccc4cc(OC(=O)[C@H](N)C(C)C)c(OC)cc4c23)ccc1OC(=O)[C@H](N)C(C)C [Compound 17]
GI50 ([1]; GI=growth inhibition): 109 nM
CC50 [1, 13]: 878 nM
IC (TGI) [1, 14]: 359 nM
GI50 ([2]; HELA-APL, GI=growth inhibition): 119 nM
CC50 [2, 15]: 1850 nM
IC (TGI) [2, 16]: 353 nM
stimulation of DNA cleavage by topoisomerase I (radiolabeled DNA substrate) [3]: no difference between the (L) (36) and (D) (17) Val isomers

COc1cc(-c2c3c4cc(OC)c(OC(=O)[C@@H](NC(=O)OC(C)(C)C)C(C)C)cc4oc(=O)c3n3ccc4cc(OC(=O)[C@@H](NC(=O)OC(C)(C)C)C(C)C)c(OC)cc4c23)ccc1OC(=O)[C@@H](NC(=O)OC(C)(C)C)C(C)C [Compound 38]
CC50 ([7]; SK-OV-3, read-out: LC50 SKOV-3): 9110 nM
GI50 [5]: 80.9 nM
IC (TGI) [5]: 911 nM
CC50 [8]: 9110 nM

COc1cc(-c2c3n(c4c(=O)oc5cc(OC(=O)[C@H](NC(=O)OC(C)(C)C)C(C)C)c(OC)cc5c24)CCc2cc(OC(=O)[C@H](NC(=O)OC(C)(C)C)C(C)C)c(OC)cc2-3)ccc1OC(=O)[C@H](NC(=O)OC(C)(C)C)C(C)C [Compound 34]
LC50 (concentration giving 50% net cell killing) [4, 10]: 3440 nM
GI50 [5]: 244 nM
IC (TGI) [5]: 653 nM
